# Data reported in ChEMBL document CHEMBL1201862, “PubChem BioAssay data set” (2004).
# Activity calls are given as the source filed them.
# How the values were obtained:
# Staphylococcus aureus = experiment: Inhibitors of Bacterial Quorum Sensing Structure Activity Relationship (SAR) Analysis: Dose Response Assay. [Related pubchem assays: 700, 527 ]; format: functional, organism-based
# [1] = target: Matrix metalloproteinase-14 (Homo sapiens, UniProt P50281); experiment: Dose Response confirmation of uHTS hits for a small molecule inhibitors of MT1-MMP activation in a fluorescence assay set 1.; format: functional
# Protein Rev = Protein Rev (Human immunodeficiency virus type 1 group M subtype B (isolate WMJ22)(HIV-1), UniProt P05866); experiment: inhibitors of Rev protein–RRE RNA complex – biochemical, protein-RNA interaction, dose response (AID 842); design: species or system Human immunodeficiency virus 1
# Chain of Protein Rev (P05866 whole entry): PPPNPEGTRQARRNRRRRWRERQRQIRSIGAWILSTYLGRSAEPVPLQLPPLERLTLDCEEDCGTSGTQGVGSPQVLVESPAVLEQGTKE
# Nonstructural protein 1 = Nonstructural protein 1 (Influenza A virus, UniProt Q194T2); format: functional, Influenza A virus (A/California/07/2009(H1N1))
# Chain of Nonstructural protein 1 (Q194T2 whole entry): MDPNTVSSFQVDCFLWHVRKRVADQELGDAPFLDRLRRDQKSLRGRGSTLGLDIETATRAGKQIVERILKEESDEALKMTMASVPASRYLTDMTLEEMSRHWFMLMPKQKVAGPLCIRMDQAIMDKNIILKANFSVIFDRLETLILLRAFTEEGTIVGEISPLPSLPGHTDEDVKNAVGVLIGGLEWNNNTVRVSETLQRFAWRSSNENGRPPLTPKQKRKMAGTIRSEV
# [2] = target: T1, Melanin-concentrating hormone receptor 1 (Homo sapiens, UniProt Q99705); experiment: Fluorescence-based counterscreen for antagonists of the G-protein coupled receptor 7 (GPR7): cell-based high throughput dose response assay to identify antagonists of the melanin-concentrating hormone receptor 1 (MCHR1).; format: functional
# T1 sequence (Q99705 whole entry): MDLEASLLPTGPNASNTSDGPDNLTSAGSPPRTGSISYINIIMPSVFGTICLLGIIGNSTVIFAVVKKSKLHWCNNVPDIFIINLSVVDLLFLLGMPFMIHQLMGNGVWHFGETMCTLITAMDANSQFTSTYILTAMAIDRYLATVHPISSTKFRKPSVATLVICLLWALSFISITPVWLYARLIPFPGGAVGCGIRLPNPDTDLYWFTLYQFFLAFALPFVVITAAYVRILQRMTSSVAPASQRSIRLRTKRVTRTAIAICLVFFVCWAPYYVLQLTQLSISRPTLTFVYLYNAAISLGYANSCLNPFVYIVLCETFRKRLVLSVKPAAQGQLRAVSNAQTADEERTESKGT
# [3] = target: Neuropeptides B/W receptor type 1 (Homo sapiens, UniProt P48145); experiment: Fluorescence-based dose response cell-based high throughput screening assay to identify antagonists of the G-protein coupled receptor 7 (GPR7). [Related pubchem assays: 1952 (Screening assay (GPR7 antagonists).), 1880 (Summary AID.)]; format: functional
# Chain of Neuropeptides B/W receptor type 1 (P48145 whole entry): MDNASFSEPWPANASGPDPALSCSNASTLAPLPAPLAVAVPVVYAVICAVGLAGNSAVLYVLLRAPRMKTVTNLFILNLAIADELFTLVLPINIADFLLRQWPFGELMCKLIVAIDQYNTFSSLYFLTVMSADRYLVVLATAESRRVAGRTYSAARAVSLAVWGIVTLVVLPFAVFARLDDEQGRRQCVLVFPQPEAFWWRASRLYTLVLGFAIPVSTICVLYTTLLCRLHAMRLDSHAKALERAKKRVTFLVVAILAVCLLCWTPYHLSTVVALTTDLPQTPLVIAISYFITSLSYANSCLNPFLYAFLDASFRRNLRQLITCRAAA
# [4] = target: T2, Replicative DNA helicase DnaB (Mycobacterium tuberculosis, UniProt P9WMR3); experiment: DnaB intein splicing inhibitors, dose response, biochemical, cell-free fluorescence (AID 449749); format: functional
# T2 sequence (P9WMR3 whole entry): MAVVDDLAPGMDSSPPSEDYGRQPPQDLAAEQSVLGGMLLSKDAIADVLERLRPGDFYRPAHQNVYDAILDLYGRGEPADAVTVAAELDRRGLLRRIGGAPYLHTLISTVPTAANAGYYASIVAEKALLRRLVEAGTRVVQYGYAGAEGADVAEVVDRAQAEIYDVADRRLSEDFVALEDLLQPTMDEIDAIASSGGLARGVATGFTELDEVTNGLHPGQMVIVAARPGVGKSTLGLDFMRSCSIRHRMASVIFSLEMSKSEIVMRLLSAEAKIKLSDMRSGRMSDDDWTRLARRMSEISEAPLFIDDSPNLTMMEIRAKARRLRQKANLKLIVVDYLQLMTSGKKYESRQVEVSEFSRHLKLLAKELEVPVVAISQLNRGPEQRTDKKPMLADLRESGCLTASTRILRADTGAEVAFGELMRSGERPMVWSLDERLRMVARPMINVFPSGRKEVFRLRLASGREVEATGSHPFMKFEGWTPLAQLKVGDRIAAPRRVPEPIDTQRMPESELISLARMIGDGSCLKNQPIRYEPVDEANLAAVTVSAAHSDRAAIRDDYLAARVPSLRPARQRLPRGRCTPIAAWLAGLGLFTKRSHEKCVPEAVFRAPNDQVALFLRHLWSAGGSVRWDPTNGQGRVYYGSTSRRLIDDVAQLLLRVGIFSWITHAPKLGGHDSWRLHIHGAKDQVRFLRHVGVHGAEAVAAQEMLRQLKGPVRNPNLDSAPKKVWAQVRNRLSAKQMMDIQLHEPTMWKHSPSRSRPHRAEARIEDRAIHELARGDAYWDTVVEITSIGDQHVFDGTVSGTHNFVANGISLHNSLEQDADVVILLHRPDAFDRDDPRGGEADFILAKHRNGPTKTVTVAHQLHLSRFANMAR
# Protein RecA = target: T3, Protein RecA (Mycobacterium tuberculosis, UniProt P9WHJ3); experiment: Fluorescence Cell-Free Homogeneous Dose Retest to Identify Inhibitors of RecA-Intein Splicing Activity. [Related pubchem assays (depositor defined):AID2097, AID2223, AID489010, AID492950]; format: functional
# T3 sequence (P9WHJ3 whole entry): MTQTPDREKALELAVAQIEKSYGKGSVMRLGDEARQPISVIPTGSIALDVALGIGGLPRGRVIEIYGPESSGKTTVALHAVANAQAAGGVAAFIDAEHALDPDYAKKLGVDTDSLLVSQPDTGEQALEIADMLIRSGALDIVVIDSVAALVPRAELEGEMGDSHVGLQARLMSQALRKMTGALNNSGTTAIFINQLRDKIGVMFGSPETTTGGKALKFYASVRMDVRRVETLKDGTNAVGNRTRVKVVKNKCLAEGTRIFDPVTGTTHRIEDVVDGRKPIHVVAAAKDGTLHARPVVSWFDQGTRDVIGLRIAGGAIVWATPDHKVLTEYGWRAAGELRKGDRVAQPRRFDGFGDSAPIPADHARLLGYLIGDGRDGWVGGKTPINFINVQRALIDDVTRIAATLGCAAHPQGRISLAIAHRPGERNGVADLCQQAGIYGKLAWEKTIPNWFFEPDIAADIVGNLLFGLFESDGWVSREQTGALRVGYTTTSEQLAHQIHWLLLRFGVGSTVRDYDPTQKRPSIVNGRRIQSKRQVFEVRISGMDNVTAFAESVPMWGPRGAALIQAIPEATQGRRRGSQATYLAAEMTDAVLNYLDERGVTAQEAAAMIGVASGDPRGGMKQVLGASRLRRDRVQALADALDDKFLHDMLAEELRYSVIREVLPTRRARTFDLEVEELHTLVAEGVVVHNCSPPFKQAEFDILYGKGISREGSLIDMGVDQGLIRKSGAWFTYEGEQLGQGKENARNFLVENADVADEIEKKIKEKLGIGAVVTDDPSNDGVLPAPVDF
# [5] = target: T4, Heat shock 70 kDa protein 1A (Homo sapiens, UniProt P0DMV8); experiment: small-molecule inhibition of Hsp70 – biochemical, TR-FRET (AID 786)
# T4 sequence (P0DMV8 whole entry): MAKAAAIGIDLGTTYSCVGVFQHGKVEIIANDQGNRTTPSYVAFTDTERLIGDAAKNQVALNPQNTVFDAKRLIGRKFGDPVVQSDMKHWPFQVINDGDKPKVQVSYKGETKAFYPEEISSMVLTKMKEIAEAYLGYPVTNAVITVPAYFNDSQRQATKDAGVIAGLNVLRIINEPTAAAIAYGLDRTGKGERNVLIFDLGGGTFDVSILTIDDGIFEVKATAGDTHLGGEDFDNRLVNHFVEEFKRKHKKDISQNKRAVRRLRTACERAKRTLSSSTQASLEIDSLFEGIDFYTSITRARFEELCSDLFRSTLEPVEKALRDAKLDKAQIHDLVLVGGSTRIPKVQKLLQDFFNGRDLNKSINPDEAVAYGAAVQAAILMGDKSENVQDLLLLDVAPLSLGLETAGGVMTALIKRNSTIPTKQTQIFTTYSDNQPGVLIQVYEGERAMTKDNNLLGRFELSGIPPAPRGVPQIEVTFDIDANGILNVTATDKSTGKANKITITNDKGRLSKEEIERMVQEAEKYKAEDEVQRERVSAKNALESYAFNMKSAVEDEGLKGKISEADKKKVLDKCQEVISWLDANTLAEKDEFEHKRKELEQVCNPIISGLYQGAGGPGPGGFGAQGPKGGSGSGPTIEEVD
# [6] = target: T4, Heat shock 70 kDa protein 1A; experiment: small molecules displacing fluorescent ligand from Hsp70 – biochemical, fluorescence polarization, primary screen (AID 583)
# [7] = target: T5, Serine/threonine-protein phosphatase (Homo sapiens, UniProt Q9BPW0); experiment: Counterscreen for inhibitors of PP1: fluorescence-based biochemical high throughput dose response assay to identify inhibitors of Protein Phosphatase 5 (PP5). [Related pubchem assays: 2034 (Summary (PP5 inhibitors)), 1987 (PP5 inhibitors in singlate), 2235 (PP1 inhibitors in singlate)]
# T5 sequence (Q9BPW0 whole entry): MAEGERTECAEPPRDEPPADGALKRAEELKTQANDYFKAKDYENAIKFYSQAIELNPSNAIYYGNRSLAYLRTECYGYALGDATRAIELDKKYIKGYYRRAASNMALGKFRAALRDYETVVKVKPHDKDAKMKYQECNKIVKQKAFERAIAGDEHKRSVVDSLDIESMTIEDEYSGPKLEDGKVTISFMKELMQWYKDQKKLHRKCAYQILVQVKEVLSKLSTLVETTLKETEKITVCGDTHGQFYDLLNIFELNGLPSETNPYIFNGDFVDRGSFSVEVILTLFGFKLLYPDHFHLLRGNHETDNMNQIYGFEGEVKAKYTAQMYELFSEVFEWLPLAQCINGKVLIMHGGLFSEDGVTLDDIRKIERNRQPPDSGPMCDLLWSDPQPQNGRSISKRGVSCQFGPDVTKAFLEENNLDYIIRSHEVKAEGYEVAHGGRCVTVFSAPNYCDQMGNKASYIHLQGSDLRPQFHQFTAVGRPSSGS
# [8] = bead-based luminescence quenchers, dual-tagged ARNT – biochemical, AlphaScreen, cherry-pick, artefact control for ARNT-TACC3 interaction inhibitor project, dose response (AID 651705); format: functional;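 further: AlphaScreen bead proximity signal that flags compounds interfering with the detection technology; potency reflects signal decrease which marks the compound as an assay artifact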
# [9] = target: Serine/threonine-protein phosphatase PP1-alpha catalytic subunit (Homo sapiens, UniProt P62136); experiment: inhibition of protein phosphatase 1 activity – biochemical, fluorescence, dose response (AID 2403);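 further: phosphatase turnover of OMFP into fluorescent 3-O-methylfluorescein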
# Chain of Serine/threonine-protein phosphatase PP1-alpha catalytic subunit (P62136 whole entry): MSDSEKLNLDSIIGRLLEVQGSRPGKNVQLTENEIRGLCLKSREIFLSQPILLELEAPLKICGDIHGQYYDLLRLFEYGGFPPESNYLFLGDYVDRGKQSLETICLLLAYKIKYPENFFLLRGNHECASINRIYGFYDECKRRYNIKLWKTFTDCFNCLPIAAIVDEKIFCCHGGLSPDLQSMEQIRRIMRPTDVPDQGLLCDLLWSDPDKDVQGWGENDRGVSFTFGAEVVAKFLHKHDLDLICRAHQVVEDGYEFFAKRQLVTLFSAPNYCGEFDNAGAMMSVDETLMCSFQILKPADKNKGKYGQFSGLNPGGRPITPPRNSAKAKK
# HT-1080 = experiment: HT1080 cell viability loss – fluorescence readout (AID 620); format: functional, cell-based; details: Homo sapiens
# [10] = target: Luciferin 4-monooxygenase (Photinus pyralis, UniProt P08659); experiment: Counter Screen for Luciferase-based Assay Positives. [Related pubchem assays: 620, 618, 411 ]
# Chain of Luciferin 4-monooxygenase (P08659 whole entry): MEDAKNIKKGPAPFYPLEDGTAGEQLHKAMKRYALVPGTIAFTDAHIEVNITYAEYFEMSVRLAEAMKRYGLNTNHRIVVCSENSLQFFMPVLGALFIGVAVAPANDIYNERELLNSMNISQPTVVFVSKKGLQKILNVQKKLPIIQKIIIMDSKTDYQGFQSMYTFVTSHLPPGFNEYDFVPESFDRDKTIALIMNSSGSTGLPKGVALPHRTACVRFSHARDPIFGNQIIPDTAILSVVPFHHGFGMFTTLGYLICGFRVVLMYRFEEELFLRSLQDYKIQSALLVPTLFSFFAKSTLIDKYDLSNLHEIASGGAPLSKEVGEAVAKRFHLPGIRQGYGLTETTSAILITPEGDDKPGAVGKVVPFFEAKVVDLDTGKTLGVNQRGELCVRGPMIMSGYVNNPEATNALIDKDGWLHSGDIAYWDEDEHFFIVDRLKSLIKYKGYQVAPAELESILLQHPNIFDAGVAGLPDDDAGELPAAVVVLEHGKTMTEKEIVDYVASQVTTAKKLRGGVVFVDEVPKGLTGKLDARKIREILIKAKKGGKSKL
# [11] = target: Dual specificity protein phosphatase 3 (Homo sapiens, UniProt P51452); experiment: inhibition constants for human DUSP3 – biochemical, colorimetric, SAR follow-up (AID 2004)
# Chain of Dual specificity protein phosphatase 3 (P51452 whole entry): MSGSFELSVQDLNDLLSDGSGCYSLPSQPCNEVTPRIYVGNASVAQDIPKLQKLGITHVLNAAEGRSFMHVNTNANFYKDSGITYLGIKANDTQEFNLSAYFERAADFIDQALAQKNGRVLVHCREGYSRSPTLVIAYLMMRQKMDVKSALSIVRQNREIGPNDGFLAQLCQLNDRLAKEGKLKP
# [12] = target: T1, Melanin-concentrating hormone receptor 1; experiment: Late-stage fluorescence-based counterscreen for antagonists of the G-protein coupled receptor 7 (GPR7): cell-based dose response assay to identify antagonists of the melanin-concentrating hormone receptor 1 (MCHR1). [Related pubchem assays (depositor defined):AID1861, AID1880, AID1952, AID2148, AID2251, AID2257, AID485339]; format: functional
# [13] = target: G2/mitotic-specific cyclin-B1 (Homo sapiens, UniProt P14635); experiment: HeLa cell cycle G2/M accumulation – FACS, mechanism study for Wee1 degradation inhibitor project, late-stage follow-up, panel member Cyclin B Degradation (AID 2088)
# Chain of G2/mitotic-specific cyclin-B1 (P14635 whole entry): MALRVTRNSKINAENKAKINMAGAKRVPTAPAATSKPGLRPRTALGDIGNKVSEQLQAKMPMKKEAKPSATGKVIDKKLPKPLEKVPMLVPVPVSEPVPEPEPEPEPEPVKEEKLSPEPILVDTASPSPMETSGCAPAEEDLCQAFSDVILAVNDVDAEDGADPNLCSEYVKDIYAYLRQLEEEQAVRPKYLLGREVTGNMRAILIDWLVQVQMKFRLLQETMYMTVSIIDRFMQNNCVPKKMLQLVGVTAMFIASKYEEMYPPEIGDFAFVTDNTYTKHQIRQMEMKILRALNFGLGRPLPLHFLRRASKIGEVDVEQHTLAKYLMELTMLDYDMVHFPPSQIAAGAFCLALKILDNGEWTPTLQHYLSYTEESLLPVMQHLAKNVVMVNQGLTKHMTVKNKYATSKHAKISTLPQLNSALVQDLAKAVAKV
# Wee1-like protein kinase = Wee1-like protein kinase (Homo sapiens, UniProt P30291); experiment: HeLa cell cycle G2/M accumulation – FACS, mechanism study for Wee1 degradation inhibitor project, late-stage follow-up, panel member Wee1 Degradation (AID 2088)
# Chain of Wee1-like protein kinase (P30291 whole entry): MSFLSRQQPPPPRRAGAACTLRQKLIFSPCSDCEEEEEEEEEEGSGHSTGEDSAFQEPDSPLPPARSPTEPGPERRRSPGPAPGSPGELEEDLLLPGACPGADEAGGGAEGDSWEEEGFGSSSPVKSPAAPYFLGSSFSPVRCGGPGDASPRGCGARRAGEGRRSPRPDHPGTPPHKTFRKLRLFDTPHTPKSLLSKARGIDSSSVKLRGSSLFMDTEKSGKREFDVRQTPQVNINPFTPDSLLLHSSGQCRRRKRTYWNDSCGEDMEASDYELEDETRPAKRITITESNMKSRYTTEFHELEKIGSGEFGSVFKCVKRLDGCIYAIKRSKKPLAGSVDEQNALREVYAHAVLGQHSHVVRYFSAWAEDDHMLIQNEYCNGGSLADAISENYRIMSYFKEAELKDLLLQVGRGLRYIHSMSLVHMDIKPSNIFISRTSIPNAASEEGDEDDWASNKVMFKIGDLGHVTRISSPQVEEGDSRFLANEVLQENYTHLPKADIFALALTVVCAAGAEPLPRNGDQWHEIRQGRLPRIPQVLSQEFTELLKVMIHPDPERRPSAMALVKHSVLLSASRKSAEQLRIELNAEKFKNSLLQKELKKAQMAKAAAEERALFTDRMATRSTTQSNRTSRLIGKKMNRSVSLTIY
# BJ [14] = experiment: growth inhibition of engineered Ras-driven BJ cells – cell-based, alamar blue fluorescence, cherrypicked samples, dose response (AID 2631); format: functional; details: Homo sapiens;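 further: confirmatory dose-response assay in RAS-dependent BJ fibroblasts engineered with TERT, LT and ST, with cytotoxicity read by fluorescence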
# BJ [15] = experiment: BJ-TERT fibroblast viability loss – cell-based, RAS-independent, luminescence, dose response (AID 1933); format: functional; details: Homo sapiens
# [16] = DRD fibroblast viability loss – cell-based, non-viral oncogenic, luminescence, dose response (AID 1934); format: functional; details: Homo sapiens
# BJ [17] = experiment: BJ-TERT-LT-ST fibroblast viability loss – cell-based, RAS-independent, luminescence, dose response (AID 1935); format: functional; details: Homo sapiens;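 further: BJ fibroblasts immortalized with TERT plus LT and ST oncogenes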
# BJ [18] = experiment: cells; format: functional, cell-based; details: Homo sapiens
# [19] = target: Heat shock protein HSP 90-alpha (Homo sapiens, UniProt P07900); format: functional, organism-based
# [20] = Luminescence Cell-Based Dose Response HTS to Identify Activators of Luciferase Translation or Activity in H4 […] Cells. [Related pubchem assays: 1829 (Project Summary), 1814 (Primary HTS)]; format: functional
# [21] = Luminescence Cell-Based Dose Confirmation HTS to Identify Activators of 5'UTR Stem-Loop Driven Alpha-Synuclein mRNA Translation in H4 Neuroglioblastoma Cells. [Related pubchem assays: 1829 (Project Summary), 1814 (Primary HTS)]; format: functional
# [22] = HEK-293T viability loss after treatment – luminescence, T-cell screen hits, cytotoxicity control for TCR NF-kB inhibitor project, dose response (AID 489026); format: functional, cell-based;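 further: cells exposed to compound about 14 hours before the viability readout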
# HeLa = experiment: Cytotoxicity counterscreen assay for transcriptional activators of heat shock protein 70 (Hsp70). [Related pubchem assays: 1203, 1252 ]; format: functional; details: Homo sapiens;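 further: cells exposed to compound for 16 hours before readout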
# H4 = experiment: Luminescence Cell-Based Dose Response HTS to Identify Activators of 5'UTR Stem-Loop Driven Prion Protein mRNA Translation in H4 Neuroglioblastoma Cells. [Related pubchem assays: 1829 (Project Summary), 1814 (Primary HTS)]; format: functional; details: Homo sapiens
# INS1 = experiment: INS-1E survival protection against cytokine death – cell-based, luminescence, retest, dose response (AID 449756); format: functional; details: Rattus norvegicus;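 further: cell death triggered by IL-1 beta plus TNF-alpha plus IFN-gamma mixture; protective hits raise ATP signal compared with cytokine alone wells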
smiles,measurement,setting,value
CC1CCN(C(C(=O)Nc2ccc3c(c2)OCO3)c2ccccc2)CC1 (stereo unspecified),IC50,Staphylococcus aureus,0.976 µM (active)
CC1=NN(c2ccccc2)C(=O)C1N=Nc1ccc(N)cc1 (stereo unspecified),IC50,[1],> 80 µM (inactive)
same,IC50,Protein Rev,> 79.4 µM (not active)
same,IC50,Nonstructural protein 1,10.5 µM (active)
O=C(Oc1ccc(C(=S)N2CCOCC2)cc1)c1ccccc1,IC50,[2],> 14.6 µM (not active)
same,IC50,[3],> 43.8 µM (not active)
CC(=O)N1CCC2(CC1)C(C#N)=C(N)Oc1[nH]nc(C)c12,AC50,[4],8.21 µM (active)
same,EC50,Protein RecA,1.36 µM (active)
same,IC50,[5],> 100 µM (not active)
same,IC50,[6],> 100 µM (not active)
COc1cc(NS(=O)(=O)c2ccc(Nc3nc(-c4ccccn4)cs3)cc2)nc(OC)n1,IC50,[7],> 67 µM (not active)
same,AC50,[8],88.3 µM (active)
same,IC50,[9],3.63 µM (active)
c1ccc(-c2ccc(-c3nc(-c4ccncc4)no3)cc2)cc1,EC50,HT-1080,> 50 µM (not active)
same,EC50,[10],4.37 µM (active)
O=C(O)c1cccc2c1NC(c1ccc(Cl)cc1)C1CC=CC21 (stereo unspecified),Ki,[11],119 µM (inactive)
COc1ccc(Oc2c(Cl)cnn(-c3cc(Cl)cc(Cl)c3)c2=O)cc1,IC50,[12],1.1 µM (active)
Cc1cc(O)nc(-n2nc(C)cc2NC(=O)c2ccccc2Br)n1,EC50,[13],> 49.7 µM (inactive)
same,EC50,Wee1-like protein kinase,> 49.7 µM (inactive)
CC1C/C(=C/c2ccncc2)C(=O)/C(=C/c2ccncc2)C1 (stereo unspecified),EC50,BJ [14],0.291 µM (active)
same,EC50,BJ [15],1.1 µM (inconclusive)
same,EC50,[16],2.23 µM (inconclusive)
same,EC50,BJ [17],2.3 µM (inconclusive)
same,EC50,BJ [18],1.01 µM (inconclusive)
same,AC50,[19],4.23 µM (active)
same,EC50,[20],> 60 µM (not active)
same,EC50,[21],> 120 µM (not active)
same,IC50,[22],54 µM (inactive)
same,CC50,HeLa,> 1.22 µM (not active)
same,EC50,H4,> 120 µM (not active)
same,AC50,INS1,3.66 µM (active)
